We go through 6 compounds from ChEMBL document CHEMBL1201862, “PubChem BioAssay data set” (2004).

What all share (assay): NCI tumour cell line growth inhibition, 48 h
For test [1], the system named is UACC-62.
Test [2] relates to RPMI-8226.
The subject of test [3] is DU-145.
In test [4] the test system is SK-MEL-2.
Test [5] has as its system CAKI-1.
Test [6] relates to NCI-H23.
The test system of test [7] is T47D.
In test [8] the test system is MDA-MB-435.
Test [9] deals with HOP-92.
Test [10] has as its system OVCAR-8.
Test [11] concerns EKVX.
The subject of test [12] is OVCAR-5.
Test [13] deals with NCI/ADR-RES.
Test [14] deals with TK-10.
In test [15] the test system is NCI-H460.

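Assay format: 96-well plates, 48-hour exposure. GI50 is the concentration that inhibits growth by half.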 Activity calls are given as the source filed them. No stated cut-off is given here; in the data, active = GI50 up to about 1.1 µM and inactive = higher.

On to `COc1cc(S(=O)(=O)Nc2ccc(-c3csc(N4C(=O)C(C)SC4c4cccc(Oc5ccccc5)c4)n3)cc2)ccc1Cl` (stereo not given), for which the GI50 in test [1] was 28.4 µM (inactive); in test [2], 42.1 µM (inactive); in test [3], 35.3 µM (inactive); in test [4], 86.9 µM (inactive); in [5] it was 46 µM (inactive); in test [6], 33 µM (inactive). In addition, the GI50 was 29.6 µM (inactive) in test [7]; 32.6 µM (inactive) in [8]; 32.7 µM (inactive) in [9]; 37.5 µM (inactive) in test [10]; 53.2 µM (inactive) in test [11]; 83.2 µM (inactive) in test [12]. Also, the GI50 in [13] was > 100 µM (inactive).
Consider `CCOC(=O)C(Cc1c(-c2[nH]c3ccccc3c2CC(NC(=O)CNC(C)=O)C(=O)OCC)[nH]c2ccccc12)NC(=O)CNC(C)=O` (stereo not given), for which the GI50 in test [1] was 74.3 µM (inactive); in test [14] it was > 100 µM (inactive); in test [2], > 100 µM (inactive); in test [3] it was > 100 µM (inactive); in [4], 18.6 µM (inactive); in test [5], > 100 µM (inactive). In addition, the GI50 in test [6] was > 100 µM (inactive); in test [8] it was > 100 µM (inactive); in [9] it was 26.3 µM (inactive); in [15] it was > 100 µM (inactive); in [11], > 100 µM (inactive); in test [12] it was > 100 µM (inactive).
On to `N#C[C@@H](c1nc2ccccc2s1)c1ncccc1[N+](=O)[O-]`, for which the GI50 in test [1] was 3.21 µM (inactive); in [14], 4.79 µM (inactive); in [2], 4.9 µM (inactive); in [3] it was 6.34 µM (inactive); in [4], 4.12 µM (inactive); in test [5], 19 µM (inactive). Besides, the GI50 was 3.7 µM (inactive) in test [6]; 4.18 µM (inactive) in test [7]; 13.4 µM (inactive) in [8]; 1.32 µM (inactive) in test [9]; 9.06 µM (inactive) in test [10]; 5.62 µM (inactive) in test [15]. Moreover, the GI50 in test [11] is 5.89 µM (inactive); in test [12] it was 11.9 µM (inactive); in test [13] it was 6.46 µM (inactive).
With `Clc1ccc(N/N=C(\c2ccccc2)c2ccccn2)nc1`, the GI50 in test [1] was 0.214 µM (active); in test [2] it was 0.147 µM (active); in test [3], 0.333 µM (active); in test [4] it was 3.85 µM (inactive); in [5], < 0.01 µM (active); in test [6] it was 0.0526 µM (active). In addition, the GI50 in test [7] was < 0.01 µM (active); in test [8], 0.627 µM (active); in test [9], 0.101 µM (active); in [10], < 0.01 µM (active); in test [11] it was < 0.01 µM (active); in test [12], 0.895 µM (active). In test [13], the GI50 is < 0.0165 µM (active).
Turning to `CC(=O)N(C(=O)CC(=O)N1N=C(C)C(/N=N/c2cccc([N+](=O)[O-])c2)C1=O)c1ccc(Cl)cc1` (stereo not given), the GI50 was > 10 µM (inactive) in test [1]; > 10 µM (inactive) in test [14]; > 10 µM (inactive) in [2]; > 10 µM (inactive) in test [3]; > 10 µM (inactive) in test [5]; 7.03 µM (inactive) in test [6]. The GI50 in test [7], in test [8], in [9], in [10], in test [12] and in test [13] was > 10 µM (inactive) throughout.
In the case of `O=c1[nH]cnc2sc(=S)c3c(c12)CCC3`, the GI50 was 40.9 µM (inactive) in test [1]; 25.2 µM (inactive) in [14]; 18 µM (inactive) in test [2]; 39 µM (inactive) in test [3]; > 100 µM (inactive) in test [4]; 19.3 µM (inactive) in test [5]. Besides, the GI50 in [6] was 23.5 µM (inactive); in test [7], 19.1 µM (inactive); in test [8] it was 81.8 µM (inactive); in test [9], 23.8 µM (inactive); in [10], 38.4 µM (inactive); in [15], 44.1 µM (inactive). Also, the figures for the GI50 in test [11], in [12] and in test [13] were 47.6 µM (inactive), 47.8 µM (inactive) and 36.9 µM (inactive), respectively.
